IC50 data for 21 compounds are collected here from US20230027985A1, “SUBSTITUTED HYDANTOINAMIDES AS ADAMTS7 ANTAGONISTS” (Bayer Aktiengesellschaft, priority 2019, published 2023).

Assay [1] concerns the target T1, Purified recombinant ADAMTS-7 (rat prodomain/human catalytic domain, SEQ ID No. 01 or 02) (Homo sapiens, UniProt Q9UKP4).
T1 construct: rat ADAMTS-7 signal peptide + prodomain (rat 1-217, Q1EHB3) (N); 2xStrep tag (C); 6xHis tag (C); made in house; host or cells: Expi293 cells
T1 sequence (Q9UKP4 237-537): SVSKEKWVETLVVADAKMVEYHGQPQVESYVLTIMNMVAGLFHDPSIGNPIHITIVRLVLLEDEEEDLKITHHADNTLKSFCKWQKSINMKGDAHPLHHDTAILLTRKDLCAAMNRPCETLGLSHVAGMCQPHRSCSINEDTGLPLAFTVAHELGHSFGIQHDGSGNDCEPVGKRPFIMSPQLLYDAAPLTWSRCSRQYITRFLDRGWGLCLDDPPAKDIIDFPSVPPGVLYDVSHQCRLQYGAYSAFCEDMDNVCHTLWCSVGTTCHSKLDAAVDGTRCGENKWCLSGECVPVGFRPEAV
The assay is described as follows: Assay for ADAMTS-7 enzymatic activity (FRET substrate cleavage). It is filed as biochemical. The following applies: FRET substrate SEQ ID No. 11, 120 min at 32° C.; read-out: ADAMTS7-IC50. As to the method: Purified recombinant ADAMTS-7 (as of SEQ ID No. 01 or SEQ ID No. 02) was diluted in reaction buffer (20 mM HEPES pH 8.0, 150 mM NaCl, 5 mM CaCl2, 0.004% Brij, 10 μM ZnCl2) fora concentration of approximately 20 nM. 25 μl of the solution were transferred into each well of a 384-well white microtiter plate (Greiner Bio-One 781075) and 1 μl test compound solution (modulator/inhibitor dissolved in DMSO, at the corresponding concentration) or pure DMSO as a control were added per well. […] Amino acids […] are derived from Thrombospondin-1 sequence (275-289). An additional carboxyl glutamic acid was added after the QXL520 quencher to increase substrate solubility. The microtiter plate was incubated for 120 min at the temperature of 32° C. The increase of fluorescence intensity was measured in appropriate fluorescence plate reader (e.g. TECAN Ultra) using excitation wavelength of 485 nm and emission wavelength of 520 nm. IC50 values were calculated from percentage of inhibition of ADAMTS-7 activity as a function of test compound concentration.

A further assay deals with T2, ADAMTS4 (Homo sapiens, UniProt O75173).
T2 construct: purchased R&D 4307-AD
T2 sequence (O75173 213-685 limits assumed): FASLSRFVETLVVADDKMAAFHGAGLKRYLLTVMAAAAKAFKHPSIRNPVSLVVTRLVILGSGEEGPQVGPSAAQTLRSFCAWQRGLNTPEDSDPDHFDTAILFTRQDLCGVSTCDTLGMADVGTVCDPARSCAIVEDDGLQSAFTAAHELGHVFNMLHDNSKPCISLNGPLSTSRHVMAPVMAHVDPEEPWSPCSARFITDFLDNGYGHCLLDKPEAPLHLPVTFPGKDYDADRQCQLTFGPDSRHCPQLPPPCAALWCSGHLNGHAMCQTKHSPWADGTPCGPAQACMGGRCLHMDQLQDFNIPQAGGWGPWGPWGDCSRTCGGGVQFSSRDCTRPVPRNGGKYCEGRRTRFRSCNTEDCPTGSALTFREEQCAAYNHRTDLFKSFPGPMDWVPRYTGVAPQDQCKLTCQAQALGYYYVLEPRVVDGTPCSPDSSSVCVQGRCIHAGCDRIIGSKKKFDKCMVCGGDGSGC
The assay is described as follows: Selectivity assay for ADAMTS-7 modulators (FRET), ADAMTS4. It counts as biochemical. Conditions: 50 nM enzyme (R&D 4307-AD), 1 μM Dabcyl/Edans FRET substrate, 120 min at 32° C. As to the method: The respective enzyme (see table 2 below) was diluted in reaction buffer (50 mM Tris, 2.5 μM ZnCl2, 0.05% BSA, 0.001% Brij, pH 7.5 for ADAM17; 50 mM Tris 7.5, 150 mM NaCl, 10 mM CaCl2, 0.05% Brij for all other enzymes) to the respective concentration and 25 μl were transferred into each well of a 384-well white microtiter plate (Greiner Bio One 781075). 1 μl test compound solution (dissolved in DMSO, at the corresponding concentration) or pure DMSO as a control was added per well. The enzymatic reaction was initiated by addition of 25 μl of the respective concentration of the respective FRET substrate (see table 2 below) in reaction buffer. The microtiter plate was incubated for 120 min at the temperature of 32° C. The increase of fluorescence intensity was measured in appropriate fluorescence plate reader (e.g. TECAN Ultra) using the respective wavelengths for excitation and emission. IC50 values were calculated from percentage of inhibition of enzyme activity as a function of test compound concentration.

One may read the IC50 as the midpoint of a concentration-inhibition curve. Take `CC(C)(C)C1(CNC(=O)c2cnn(-c3ccc(C(F)(F)F)c(F)c3)n2)NC(=O)NC1=O` (racemic) [Example 2, rac-N-{[4-tert-butyl-2,5-dioxoimidazolidin-4-yl]methyl}-2-[3-fluoro-4-(trifluoromethyl)phenyl]-2H-1,2,3-triazole-4-carboxamide]: in assay [1], the half-maximal inhibitory concentration (IC50) came to 0.21 µM.
In the case of `CC(C)(C)C1(CNC(=O)c2cnn(-c3cccc(F)c3)n2)NC(=O)NC1=O` (racemic) [Example 4, rac-N-{[4-tert-butyl-2,5-dioxoimidazolidin-4-yl]methyl}-2-(3-fluorophenyl)-2H-1,2,3-triazole-4-carboxamide], the IC50 in assay [1] worked out at 0.26 µM; against ADAMTS4, 6.6 µM.
With `CC(C)(C)C1(CNC(=O)c2cnn(-c3ccc(C(F)(F)F)cc3)n2)NC(=O)NC1=O` (racemic) [Example 6, rac-N-[(4-tert-butyl-2,5-dioxoimidazolidin-4-yl)methyl]-2-[4-(trifluoromethyl)phenyl]-2H-1,2,3-triazole-4-carboxamide], the IC50 in assay [1] is 0.62 µM.
Turning to `O=C1NC(=O)C(CNC(=O)c2cnn(-c3ccccc3)n2)(C2CCCOC2)N1` (racemic) [Example 7, rac-N-{[2,5-dioxo-4-(tetrahydro-2H-pyran-3-yl)imidazolidin-4-yl]methyl}-2-phenyl-2H-1,2,3-triazole-4-carboxamide], the results for the half-maximal inhibitory concentration (IC50) (in assay [1]; against ADAMTS4) were 0.062 µM and 8.5 µM, respectively.
The corresponding values for `O=C1NC(=O)C(CNC(=O)c2cnn(-c3ccccc3)n2)(C2CCOC2)N1` (racemic) [Example 19, rac-N-{[2,5-dioxo-4-(tetrahydrofuran-3-yl)imidazolidin-4-yl]methyl}-2-phenyl-2H-1,2,3-triazole-4-carboxamide] are 0.17 µM and 22 µM.
On to `O=C1NC(=O)C(CNC(=O)c2cnn(-c3ccccc3)n2)(c2ccccn2)N1` (racemic) [Example 20, rac-N-{[2,5-dioxo-4-(pyridin-2-yl)imidazolidin-4-yl]methyl}-2-phenyl-2H-1,2,3-triazole-4-carboxamide], for which the figures for the half-inhibitory concentration (IC50) (in assay [1]; at ADAMTS4) were 0.026 µM and 4.8 µM, respectively.
As for `O=C1NC(=O)C(CNC(=O)c2cnn(-c3ccccc3)n2)(c2ccncc2)N1` (racemic) [Example 21, rac-N-{[2,5-dioxo-4-(pyridin-4-yl)imidazolidin-4-yl]methyl}-2-phenyl-2H-1,2,3-triazole-4-carboxamide], the figures for the half-inhibitory concentration (IC50) (in assay [1]; at ADAMTS4) were 0.2 µM and 2.8 µM, respectively.
On to `O=C1NC(=O)C(CNC(=O)c2cnn(-c3ccc(F)cc3)n2)(c2ccccn2)N1` (racemic) [Example 22, rac-N-{[2,5-dioxo-4-(pyridin-2-yl)imidazolidin-4-yl]methyl}-2-(4-fluorophenyl)-2H-1,2,3-triazole-4-carboxamide], for which the IC50 is 0.01 µM in assay [1] and 3 µM on ADAMTS4.
For `O=C1NC(=O)C(CNC(=O)c2cnn(-c3ccc(F)cc3)n2)(c2cccnc2)N1` (racemic) [Example 23, rac-N-{[2,5-dioxo-4-(pyridin-3-yl)imidazolidin-4-yl]methyl}-2-(4-fluorophenyl)-2H-1,2,3-triazole-4-carboxamide], in that order: 0.03 µM and 4.5 µM.
Regarding `O=C1NC(=O)C(CNC(=O)c2cnn(-c3ccc(F)cc3)n2)(c2ccncc2)N1` (racemic) [Example 24, rac-N-{[2,5-dioxo-4-(pyridin-4-yl)imidazolidin-4-yl]methyl}-2-(4-fluorophenyl)-2H-1,2,3-triazole-4-carboxamide], the figures for the concentration for half-maximal inhibition (IC50) (in assay [1]; at ADAMTS4) were 0.14 µM and 2.9 µM, respectively.
For `CC(C)C1(CNC(=O)c2cnn(-c3ccccc3)n2)NC(=O)NC1=O` (racemic) [Example 48, rac-N-[(2,5-dioxo-4-(propan-2-yl)imidazolidin-4-yl)methyl]-2-phenyl-2H-1,2,3-triazole-4-carboxamide], in that order: 0.265 µM and 14.5 µM.
For `CC(C)(C)C1(CNC(=O)c2cnn(-c3ccccc3)n2)NC(=O)NC1=O` (racemic) [Example 49, rac-[(4-tert-butyl-2,5-dioxoimidazolidin-4-yl)methyl]-2-phenyl-2H-1,2,3-triazole-4-carboxamide], in that order: 0.07 µM and 15 µM.
`O=C1NC(=O)C(CNC(=O)c2cnn(-c3ccccc3)n2)(C2CCCC2)N1` (racemic) [Example 50, rac-N-[(4-cyclopentyl-2,5-dioxoimidazolidin-4-yl)methyl]-2-phenyl-2H-1,2,3-triazole-4-carboxamide]: the half-inhibitory concentration (IC50) in assay [1] came out at 0.191 µM.
Regarding `CCCCC1(CNC(=O)c2cnn(-c3ccccc3)n2)NC(=O)NC1=O` (racemic) [Example 51, rac-N-[(4-butyl-2,5-dioxoimidazolidin-4-yl)methyl]-2-phenyl-2H-1,2,3-triazole-4-carboxamide], the IC50 in assay [1] was found to be 0.089 µM; against ADAMTS4, 15 µM.
As to `O=C1NC(=O)C(CNC(=O)c2cnn(-c3ccccc3)n2)(C2CCCCC2)N1` (racemic) [Example 53, rac-N-[(4-cyclohexyl-2,5-dioxoimidazolidin-4-yl)methyl]-2-phenyl-2H-1,2,3-triazole-4-carboxamide], the concentration for half-maximal inhibition (IC50) in assay [1] stood at 0.145 µM.
Same read-out and setting: as for `O=C1NC(=O)C(CNC(=O)c2cnn(-c3ccc(F)cc3)n2)(CC2CC2)N1` (racemic) [Example 64, rac-N-[4-(cyclopropylmethyl)-2,5-dioxoimidazolidin-4-yl)methyl]-2-(4-fluorophenyl)-2H-1,2,3-triazole-4-carboxamide], the figure is 0.24 µM.
Still for that read-out and setting: the result for `O=C1NC(=O)C(CNC(=O)c2cnn(-c3ccc(F)cc3)n2)(C2CCCC2)N1` (racemic) [Example 66, rac-N-[(4-cyclopentyl-2,5-dioxoimidazolidin-4-yl]methyl]-2-(4-fluorophenyl)-2H-1,2,3-triazole-4-carboxamide] reads 0.38 µM.
Take `O=C1NC(=O)C(CNC(=O)c2cnn(-c3ccc(F)cc3)n2)(c2ncsc2C2CC2)N1` (racemic) [Example 157, rac-N-{[4-(5-cyclopropyl-1,3-thiazol-4-yl)-2,5-dioxoimidazolidin-4-yl]methyl}-2-(4-fluorophenyl)-2H-1,2,3-triazole-4-carboxamide]: the IC50 at ADAMTS4 was 0.46 µM.
`O=C1NC(=O)C(CNC(=O)c2cnn(-c3ccc(F)cc3)n2)(c2ccccn2)N1` (single isomer, unassigned) [Example 138, ent-N-{[2,5-dioxo-4-(pyridin-2-yl)imidazolidin-4-yl]methyl}-2-(4-fluorophenyl)-2H-1,2,3-triazole-4-carboxamide]: the concentration for half-maximal inhibition (IC50) in assay [1] was 0.59 µM.
`O=C1NC(=O)C(CNC(=O)c2cnn(-c3ccc(Cl)c(F)c3)n2)(C2CCC2)N1` (single isomer, unassigned; ent-2) [Example 89, ent-2-(4-chloro-3-fluorophenyl)-N-[(4-cyclobutyl-2,5-dioxoimidazolidin-4-yl)methyl]-2H-1,2,3-triazole-4-carboxamide] returned a half-inhibitory concentration (IC50) on ADAMTS4 of 0.975 µM.
On to `C[C@@H](NC(=O)c1cnn(-c2ccccc2)n1)C1(C2CC2)NC(=O)NC1=O` (stereo partly drawn) [Example 39, ent-N-((1R)-1-(4-Cyclopropyl-2,5-dioxoimidazolidin-4-yl)ethyl)-2-phenyl-2H-1,2,3-triazole-4-carboxamide], for which the IC50 in assay [1] stood at 0.71 µM.
